# Data taken from ChEMBL document CHEMBL4373667, “Synthesis and anti-cancer activities of glycosides and glycoconjugates of diterpenoid isosteviol” (Medchemcomm, 2019).
# pIC50: −log10 of the molar value.
# Columns and labels:
# [1] = Cytotoxicity against human Chang liver cells assessed as reduction in cell viability after 24 hrs by DAPI/propidium iodide staining based assay
# [2] = tested on: M-HeLa; assay: Antiproliferative activity against human M-HeLa cells assessed as reduction in cell viability after 24 hrs by DAPI/propidium iodide staining based assay; type: functional
# [3] = tested on: MCF7; assay: Antiproliferative activity against human MCF7cells assessed as reduction in cell viability after 24 hrs by DAPI/propidium iodide staining based assay; type: functional; settings: MCF7, 24 h
# [4] = Hemolytic activity in human Erythrocytes at 50 +/- 0.8 uM relative to control; type: ADME, cell-based, Erythrocyte; settings: read-out: Activity
# [5] = Hemolytic activity in human Erythrocytes at 10 +/- 0.8 uM relative to control; type: ADME, cell-based, Erythrocyte; settings: read-out: Activity
# [6] = tested on: M-HeLa; assay: Induction of mitochondrial membrane potential loss in human M-HeLa cells assessed as collapsed mitochondrial membrane potential at 25 uM after 24 hrs by Jc-10 dye based flow cytometric analysis (reference value: 22.17%); type: functional
# [7] = tested on: M-HeLa; assay: Induction of mitochondrial membrane potential loss in human M-HeLa cells assessed as intact mitochondrial membrane potential at 25 uM after 24 hrs by Jc-10 dye based flow cytometric analysis (reference value: 77.48%); type: functional
# [8] = tested on: M-HeLa; assay: Induction of mitochondrial membrane potential loss in human M-HeLa cells assessed as collapsed mitochondrial membrane potential at 10 uM after 24 hrs by Jc-10 dye based flow cytometric analysis (reference value: 22.17%); type: functional
# [9] = tested on: M-HeLa; assay: Induction of mitochondrial membrane potential loss in human M-HeLa cells assessed as intact mitochondrial membrane potential at 10 uM after 24 hrs by Jc-10 dye based flow cytometric analysis (reference value: 77.48%); type: functional
# [10] = tested on: M-HeLa; assay: Induction of apoptosis in human M-HeLa cells assessed as necrotic cells at 25 uM after 24 hrs by annexin V-FITC/PIstaining based flow cytometric analysis (reference value: […]); type: functional
# [11] = tested on: M-HeLa; assay: Induction of apoptosis in human M-HeLa cells assessed as late apoptotic cells at 25 uM after 24 hrs by annexin V-FITC/PIstaining based flow cytometric analysis (reference value: 0.62%); type: functional
# [12] = tested on: M-HeLa; assay: Induction of apoptosis in human M-HeLa cells assessed as early apoptotic cells at 25 uM after 24 hrs by annexin V-FITC/PIstaining based flow cytometric analysis (reference value: 1.5%); type: functional
# [13] = tested on: M-HeLa; assay: Induction of apoptosis in human M-HeLa cells assessed as viable cells at 25 uM after 24 hrs by annexin V-FITC/PIstaining based flow cytometric analysis (reference value: 93.33%); type: functional; settings: read-out: Activity
# [14] = tested on: M-HeLa; assay: Induction of apoptosis in human M-HeLa cells assessed as necrotic cells at 10 uM after 24 hrs by annexin V-FITC/PIstaining based flow cytometric analysis (reference value: […]); type: functional
# [15] = tested on: M-HeLa; assay: Induction of apoptosis in human M-HeLa cells assessed as late apoptotic cells at 10 uM after 24 hrs by annexin V-FITC/PIstaining based flow cytometric analysis (reference value: 0.62%); type: functional
# [16] = tested on: M-HeLa; assay: Induction of apoptosis in human M-HeLa cells assessed as early apoptotic cells at 10 uM after 24 hrs by annexin V-FITC/PIstaining based flow cytometric analysis (reference value: 1.5%); type: functional
# [17] = tested on: M-HeLa; assay: Induction of apoptosis in human M-HeLa cells assessed as viable cells at 10 uM after 24 hrs by annexin V-FITC/PIstaining based flow cytometric analysis (reference value: 93.33%); type: functional; settings: read-out: Activity
# [18] = Hemolytic activity in human Erythrocytes at 100 +/- 7.8 uM relative to control; type: ADME, cell-based, Erythrocyte; settings: read-out: Activity
SMILES,pIC50 [1],pIC50 [2],pIC50 [3],also measured
CC(=O)N[C@H]1[C@H](OC(=O)[C@]2(C)CCC[C@@]3(C)[C@@H]4CC[C@@]5(C)C[C@]4(CC[C@@H]32)CC5=O)O[C@H](COC(C)=O)[C@@H](OC(C)=O)[C@@H]1OC(C)=O,4.07,4.74,4.44,–
CC(=O)OC[C@H]1O[C@@H](OC(=O)CCCCCCCCCOC(=O)[C@]2(C)CCC[C@@]3(C)[C@@H]4CC[C@@]5(C)C[C@]4(CC[C@@H]32)CC5=O)[C@H](OC(C)=O)[C@@H](OC(C)=O)[C@H]1OC(C)=O,< 4.00,4.57,4.48,–
CC(=O)OC[C@H]1O[C@@H](OC(=O)[C@]2(C)CCC[C@@]3(C)[C@@H]4CC[C@@]5(C)C[C@]4(CC[C@@H]32)CC5=O)[C@H](OC(C)=O)[C@@H](OC(C)=O)[C@@H]1OC(C)=O,< 4.00,< 4.00,< 4.00,–
COC(=O)[C@H]1O[C@@H](OC(=O)[C@]2(C)CCC[C@@]3(C)[C@@H]4CC[C@@]5(C)C[C@]4(CC[C@@H]32)CC5=O)[C@H](OC(C)=O)[C@@H](OC(C)=O)[C@@H]1OC(C)=O,< 4.00,4.59,4.19,–
CC(=O)N[C@H]1[C@H](OC(=O)[C@]2(C)CCC[C@@]3(C)[C@@H]4CC[C@@]5(C)C[C@]4(CC[C@@H]32)CC5=O)O[C@H](CO)[C@@H](O)[C@@H]1O,< 4.00,< 4.00,< 4.00,–
CC(=O)N[C@H]1[C@H](OC(=O)CCCCCCCCCOC(=O)[C@]2(C)CCC[C@@]3(C)[C@@H]4CC[C@@]5(C)C[C@]4(CC[C@@H]32)CC5=O)O[C@H](COC(C)=O)[C@@H](OC(C)=O)[C@@H]1OC(C)=O,< 4.00,< 4.00,4.19,–
CC(=O)N[C@H]1[C@H](OC(=O)CCCCCOC(=O)[C@]2(C)CCC[C@@]3(C)[C@@H]4CC[C@@]5(C)C[C@]4(CC[C@@H]32)CC5=O)O[C@H](COC(C)=O)[C@@H](OC(C)=O)[C@@H]1OC(C)=O,4.29,4.34,< 4.00,–
CC/C(=C(\c1ccccc1)c1ccc(OCCN(C)C)cc1)c1ccccc1 [TAMOXIFEN],4.34,–,–,–
CC(=O)OC[C@H]1O[C@H](OC(=O)[C@]2(C)CCC[C@@]3(C)[C@@H]4CC[C@@]5(C)C[C@]4(CC[C@@H]32)CC5=O)[C@@H](OC(C)=O)[C@@H](OC(C)=O)[C@@H]1OC(C)=O,< 4.00,4.82,4.53,hemolysis at 50 uM [4]: 0%; hemolysis at 10 uM [5]: 0%; Activity [6]: 92.26%; Activity [7]: 7.74%; Activity [8]: 70.85%; Activity [9]: 28.67%; Activity [10]: 0.28%; Activity [11]: 12.97%; Activity [12]: 13.12%; viability at 25 µM [13]: 73.7%; Activity [14]: 3.98%; Activity [15]: 7.25%; Activity [16]: 3.02%; viability at 10 µM [17]: 85.8%; hemolysis at 100 uM [18]: 0%
CC(=O)OC[C@H]1O[C@@H](OC(=O)CCCCCOC(=O)[C@]2(C)CCC[C@@]3(C)[C@@H]4CC[C@@]5(C)C[C@]4(CC[C@@H]32)CC5=O)[C@H](OC(C)=O)[C@@H](OC(C)=O)[C@H]1OC(C)=O,< 4.00,5.00,4.49,hemolysis at 50 uM [4]: 0%; hemolysis at 10 uM [5]: 0%; Activity [6]: 88.38%; Activity [7]: 11.53%; Activity [8]: 44.17%; Activity [9]: 55.78%; Activity [10]: 8.9%; Activity [11]: 13.98%; Activity [12]: 39.77%; viability at 25 µM [13]: 37.3%; Activity [14]: 5.49%; Activity [15]: 7.61%; Activity [16]: 34.78%; viability at 10 µM [17]: 52.1%; hemolysis at 100 uM [18]: 0%
C[C@@]12CC[C@@H]3[C@@](CC[C@H]4[C@@]3(C)CCC[C@@]4(C)C(=O)O[C@@H]3O[C@H](CO)[C@H](O)[C@H](O)[C@H]3O)(CC1=O)C2,4.24,4.28,4.54,–
C[C@@]12CC[C@@H]3[C@@](CC[C@H]4[C@@]3(C)CCC[C@@]4(C)C(=O)O[C@H]3O[C@H](CO)[C@@H](O)[C@H](O)[C@@H]3O)(CC1=O)C2,< 4.00,< 4.00,< 4.00,–
CC(=O)OC[C@H]1O[C@H](OC(=O)CCCCCCCCCOC(=O)[C@]2(C)CCC[C@@]3(C)[C@@H]4CC[C@@]5(C)C[C@]4(CC[C@@H]32)CC5=O)[C@@H](OC(C)=O)[C@@H](OC(C)=O)[C@@H]1OC(C)=O,< 4.00,4.74,4.51,–
C[C@@]12CC[C@@H]3[C@@](CC[C@H]4[C@@]3(C)CCC[C@@]4(C)C(=O)O[C@@H]3O[C@H](C(=O)NN)[C@@H](O)[C@H](O)[C@H]3O)(C/C1=N\N)C2,< 4.00,< 4.00,< 4.00,–
CC(=O)OC[C@H]1O[C@H](OC(=O)CCCCCOC(=O)[C@]2(C)CCC[C@@]3(C)[C@@H]4CC[C@@]5(C)C[C@]4(CC[C@@H]32)CC5=O)[C@@H](OC(C)=O)[C@@H](OC(C)=O)[C@@H]1OC(C)=O,< 4.00,4.96,4.20,hemolysis at 50 uM [4]: 1.7%; hemolysis at 10 uM [5]: 0%; Activity [6]: 89.29%; Activity [7]: 10.64%; Activity [8]: 90.91%; Activity [9]: 8.98%; Activity [10]: 0.05%; Activity [11]: 5.02%; Activity [12]: 10.59%; viability at 25 µM [13]: 84.3%; Activity [14]: 0.22%; Activity [15]: 5.59%; Activity [16]: 7.57%; viability at 10 µM [17]: 86.6%; hemolysis at 100 uM [18]: 5.5%
C[C@@]12CC[C@@H]3[C@@](CC[C@H]4[C@@]3(C)CCC[C@@]4(C)C(=O)O[C@@H]3O[C@H](CO)[C@@H](O)[C@H](O)[C@H]3O)(CC1=O)C2,< 4.00,4.49,< 4.00,–
CC(=O)OC[C@H]1O[C@@H](OC(=O)[C@]2(C)CCC[C@@]3(C)[C@@H]4CC[C@@]5(C)C[C@]4(CC[C@@H]32)CC5=O)[C@H](OC(C)=O)[C@@H](OC(C)=O)[C@H]1OC(C)=O,< 4.00,< 4.00,< 4.00,–
